Several values for one entry are separate records, joined by “and”; a condition that tells them apart may be missing. Equal values may be shown once.
Columns and labels:
Experiment in all cases: radiometric filter-binding kinase assay, Kinase HotSpot
Conditions in all cases: compound 0.5 µM; ATP 10 µM
WEE1 (human) = WEE1 (human) (UniProt P30291)
TTK (human) = TTK (human) (UniProt P33981)
CAMKK2 (human) = CAMKK2 (human) (UniProt Q96RR4)
FLT1 (human) = FLT1 (human) (UniProt P17948)
EPHB1 (human) = EPHB1 (human) (UniProt P54762)
PHKG2 (human) = PHKG2 (human) (UniProt P15735)
AKT1 (human) = AKT1 (human) (UniProt P31749)
WNK2 (human) = WNK2 (human) (UniProt Q9Y3S1)
ABL1 (human) = ABL1 (human) (UniProt P00519)
FGFR2 (human) = FGFR2 (human) (UniProt P21802)
STK16 (human) = STK16 (human) (UniProt O75716)
CDC42BPA (human) = CDC42BPA (human) (UniProt Q5VT25)
[1] = biological target: JAK1 JH1 catalytic (human) (UniProt P23458)
DMPK (human) = DMPK (human) (UniProt Q09013)
CAMK1G (human) = CAMK1G (human) (UniProt Q96NX5)
PRKG1 (human) = PRKG1 (human) (UniProt Q13976)
BRSK2 (human) = BRSK2 (human) (UniProt Q8IWQ3)
GRK6 (human) = GRK6 (human) (UniProt P43250)
MAPK12 (human) = MAPK12 (human) (UniProt P53778)
ALK (human) = ALK (human) (UniProt Q9UM73)
MAPK14 (human) = MAPK14 (human) (UniProt Q16539)
HCK (human) = HCK (human) (UniProt P08631)
MARK2 (human) = MARK2 (human) (UniProt Q7KZI7)
RAF1 (human) = RAF1 (human) (UniProt P04049)
AURKA (human) = AURKA (human) (UniProt O14965)
CDK3 CCNE1 (human) = CDK3 CCNE1 (human) (UniProt Q00526+P24864)
SGK2 (human) = SGK2 (human) (UniProt Q9HBY8)
FGFR3 (human) = FGFR3 (human) (UniProt P22607)
PRKCE (human) = PRKCE (human) (UniProt Q02156)
EPHB3 (human) = EPHB3 (human) (UniProt P54753)
KDR (human) = KDR (human) (UniProt P35968)
NEK7 (human) = NEK7 (human) (UniProt Q8TDX7)
SLK (human) = SLK (human) (UniProt Q9H2G2)
MAP3K11 (human) = MAP3K11 (human) (UniProt Q16584)
PAK2 (human) = PAK2 (human) (UniProt Q13177)
NUAK1 (human) = NUAK1 (human) (UniProt O60285)
SRPK3 (human) = SRPK3 (human) (UniProt Q9UPE1)
NTRK1 (human) = NTRK1 (human) (UniProt P04629)
CDK5 CDK5R1 p25 (human) = CDK5 CDK5R1 p25 (human) (UniProt Q00535+Q15078)
PASK (human) = PASK (human) (UniProt Q96RG2)
DYRK1A (human) = DYRK1A (human) (UniProt Q13627)
STK39 (human) = STK39 (human) (UniProt Q9UEW8)

Chain of PRKG1 (human) (Q13976 whole entry, looked up): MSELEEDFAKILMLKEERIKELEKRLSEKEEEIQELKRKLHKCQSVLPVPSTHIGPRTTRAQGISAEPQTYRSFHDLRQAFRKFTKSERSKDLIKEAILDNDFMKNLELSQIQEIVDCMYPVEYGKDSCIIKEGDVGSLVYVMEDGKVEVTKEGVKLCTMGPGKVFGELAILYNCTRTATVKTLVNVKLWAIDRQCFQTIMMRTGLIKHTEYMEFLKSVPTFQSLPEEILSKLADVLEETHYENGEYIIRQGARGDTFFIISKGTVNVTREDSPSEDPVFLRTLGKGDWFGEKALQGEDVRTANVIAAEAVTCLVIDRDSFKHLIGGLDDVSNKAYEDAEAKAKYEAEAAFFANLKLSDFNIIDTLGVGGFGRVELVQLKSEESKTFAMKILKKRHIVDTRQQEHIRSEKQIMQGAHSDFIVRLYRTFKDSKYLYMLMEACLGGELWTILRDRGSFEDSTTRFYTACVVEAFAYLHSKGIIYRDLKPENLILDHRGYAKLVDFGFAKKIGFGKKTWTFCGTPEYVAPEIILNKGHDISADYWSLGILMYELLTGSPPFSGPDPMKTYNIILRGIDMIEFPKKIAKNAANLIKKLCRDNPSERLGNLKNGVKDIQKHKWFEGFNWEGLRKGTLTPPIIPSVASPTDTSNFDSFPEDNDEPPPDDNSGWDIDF
Chain of STK16 (human) (O75716 whole entry, looked up): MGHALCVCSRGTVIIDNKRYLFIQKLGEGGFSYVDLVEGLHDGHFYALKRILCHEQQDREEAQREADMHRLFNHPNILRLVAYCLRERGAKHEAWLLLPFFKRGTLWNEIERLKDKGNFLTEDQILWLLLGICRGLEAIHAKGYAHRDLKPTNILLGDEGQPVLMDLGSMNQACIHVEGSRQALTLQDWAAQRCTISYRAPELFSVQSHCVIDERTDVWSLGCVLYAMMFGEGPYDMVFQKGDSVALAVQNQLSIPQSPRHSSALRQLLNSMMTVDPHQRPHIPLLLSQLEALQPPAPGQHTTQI
Chain of ALK (human) (Q9UM73 whole entry, looked up): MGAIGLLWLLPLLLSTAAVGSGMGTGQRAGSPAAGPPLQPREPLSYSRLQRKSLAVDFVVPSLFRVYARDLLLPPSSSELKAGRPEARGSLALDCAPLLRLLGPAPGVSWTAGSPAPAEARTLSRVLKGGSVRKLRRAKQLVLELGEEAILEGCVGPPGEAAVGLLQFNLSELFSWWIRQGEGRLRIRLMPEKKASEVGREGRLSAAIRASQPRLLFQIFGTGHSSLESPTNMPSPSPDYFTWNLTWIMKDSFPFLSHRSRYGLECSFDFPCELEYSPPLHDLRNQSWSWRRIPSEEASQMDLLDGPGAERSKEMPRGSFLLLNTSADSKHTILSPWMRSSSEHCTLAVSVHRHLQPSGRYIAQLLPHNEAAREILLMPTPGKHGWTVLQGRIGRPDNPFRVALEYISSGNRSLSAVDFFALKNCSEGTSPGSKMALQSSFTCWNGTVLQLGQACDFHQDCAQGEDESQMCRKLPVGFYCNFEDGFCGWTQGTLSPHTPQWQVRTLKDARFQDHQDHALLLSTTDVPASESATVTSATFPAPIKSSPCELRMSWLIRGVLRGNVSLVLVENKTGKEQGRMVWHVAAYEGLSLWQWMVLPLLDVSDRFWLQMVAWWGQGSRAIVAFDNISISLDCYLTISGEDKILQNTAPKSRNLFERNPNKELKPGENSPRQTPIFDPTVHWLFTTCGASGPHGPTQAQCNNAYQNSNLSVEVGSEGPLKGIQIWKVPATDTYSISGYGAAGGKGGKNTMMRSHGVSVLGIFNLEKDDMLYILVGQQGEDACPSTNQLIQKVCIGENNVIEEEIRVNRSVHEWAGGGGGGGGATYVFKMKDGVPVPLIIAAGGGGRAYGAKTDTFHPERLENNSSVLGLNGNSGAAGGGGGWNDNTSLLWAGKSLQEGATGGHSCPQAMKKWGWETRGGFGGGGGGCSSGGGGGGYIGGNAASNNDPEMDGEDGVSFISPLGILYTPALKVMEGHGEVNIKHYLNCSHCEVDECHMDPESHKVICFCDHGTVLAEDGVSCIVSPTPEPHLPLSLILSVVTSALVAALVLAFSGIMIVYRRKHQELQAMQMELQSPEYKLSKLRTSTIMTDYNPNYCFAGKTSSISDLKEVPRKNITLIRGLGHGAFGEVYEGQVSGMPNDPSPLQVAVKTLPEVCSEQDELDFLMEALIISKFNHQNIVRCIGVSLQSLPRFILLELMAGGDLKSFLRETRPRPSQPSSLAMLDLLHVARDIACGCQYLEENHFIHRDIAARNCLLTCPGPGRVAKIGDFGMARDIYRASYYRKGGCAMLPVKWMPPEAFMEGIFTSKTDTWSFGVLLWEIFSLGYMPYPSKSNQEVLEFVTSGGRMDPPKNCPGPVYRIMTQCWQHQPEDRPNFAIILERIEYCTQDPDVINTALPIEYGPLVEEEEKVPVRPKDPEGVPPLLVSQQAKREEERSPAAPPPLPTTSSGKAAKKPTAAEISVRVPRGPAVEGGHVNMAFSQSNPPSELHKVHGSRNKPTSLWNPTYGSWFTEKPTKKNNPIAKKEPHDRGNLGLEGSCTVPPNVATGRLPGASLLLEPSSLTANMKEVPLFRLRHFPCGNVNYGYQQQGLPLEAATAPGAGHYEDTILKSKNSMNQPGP
Chain of GRK6 (human) (P43250 whole entry, looked up): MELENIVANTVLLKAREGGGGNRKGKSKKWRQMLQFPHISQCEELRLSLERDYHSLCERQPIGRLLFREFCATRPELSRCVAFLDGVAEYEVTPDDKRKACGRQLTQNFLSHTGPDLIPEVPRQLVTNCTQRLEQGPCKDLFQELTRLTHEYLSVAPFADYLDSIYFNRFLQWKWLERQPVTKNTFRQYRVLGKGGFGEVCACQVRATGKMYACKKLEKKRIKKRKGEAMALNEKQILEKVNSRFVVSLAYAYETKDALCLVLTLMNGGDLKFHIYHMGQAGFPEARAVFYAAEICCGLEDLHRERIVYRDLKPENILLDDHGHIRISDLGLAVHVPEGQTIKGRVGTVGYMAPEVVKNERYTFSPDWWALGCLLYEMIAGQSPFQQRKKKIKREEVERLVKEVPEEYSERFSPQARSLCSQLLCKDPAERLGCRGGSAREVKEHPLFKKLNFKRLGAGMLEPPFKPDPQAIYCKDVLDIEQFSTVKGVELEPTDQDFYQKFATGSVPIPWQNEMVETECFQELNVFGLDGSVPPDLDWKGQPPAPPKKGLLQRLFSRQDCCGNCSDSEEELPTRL
Chain of AKT1 (human) (P31749 whole entry, looked up): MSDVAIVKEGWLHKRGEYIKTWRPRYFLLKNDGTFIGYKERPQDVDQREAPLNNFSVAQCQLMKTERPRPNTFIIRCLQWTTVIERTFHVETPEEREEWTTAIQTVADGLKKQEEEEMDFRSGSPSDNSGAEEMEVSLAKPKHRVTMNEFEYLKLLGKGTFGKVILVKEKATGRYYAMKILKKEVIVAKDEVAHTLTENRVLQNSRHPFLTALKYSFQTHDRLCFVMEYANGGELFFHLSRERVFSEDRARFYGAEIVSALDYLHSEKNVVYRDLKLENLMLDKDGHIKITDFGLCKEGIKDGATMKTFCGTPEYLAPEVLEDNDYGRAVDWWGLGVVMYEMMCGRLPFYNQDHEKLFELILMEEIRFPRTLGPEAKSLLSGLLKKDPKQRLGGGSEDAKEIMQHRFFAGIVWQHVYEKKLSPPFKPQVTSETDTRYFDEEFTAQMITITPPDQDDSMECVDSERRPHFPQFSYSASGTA
Chain of MAPK14 (human) (Q16539 whole entry, looked up): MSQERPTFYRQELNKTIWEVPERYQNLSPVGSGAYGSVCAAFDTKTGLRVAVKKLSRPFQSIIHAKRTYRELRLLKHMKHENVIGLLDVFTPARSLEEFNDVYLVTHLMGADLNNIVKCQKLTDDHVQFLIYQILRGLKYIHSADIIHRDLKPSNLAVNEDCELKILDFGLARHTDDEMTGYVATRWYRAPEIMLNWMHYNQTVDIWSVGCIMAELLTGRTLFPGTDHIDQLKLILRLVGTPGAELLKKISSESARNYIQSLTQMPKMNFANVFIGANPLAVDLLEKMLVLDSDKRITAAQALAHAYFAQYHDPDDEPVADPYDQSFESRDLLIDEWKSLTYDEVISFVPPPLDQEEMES
Chain of SRPK3 (human) (Q9UPE1 whole entry, looked up): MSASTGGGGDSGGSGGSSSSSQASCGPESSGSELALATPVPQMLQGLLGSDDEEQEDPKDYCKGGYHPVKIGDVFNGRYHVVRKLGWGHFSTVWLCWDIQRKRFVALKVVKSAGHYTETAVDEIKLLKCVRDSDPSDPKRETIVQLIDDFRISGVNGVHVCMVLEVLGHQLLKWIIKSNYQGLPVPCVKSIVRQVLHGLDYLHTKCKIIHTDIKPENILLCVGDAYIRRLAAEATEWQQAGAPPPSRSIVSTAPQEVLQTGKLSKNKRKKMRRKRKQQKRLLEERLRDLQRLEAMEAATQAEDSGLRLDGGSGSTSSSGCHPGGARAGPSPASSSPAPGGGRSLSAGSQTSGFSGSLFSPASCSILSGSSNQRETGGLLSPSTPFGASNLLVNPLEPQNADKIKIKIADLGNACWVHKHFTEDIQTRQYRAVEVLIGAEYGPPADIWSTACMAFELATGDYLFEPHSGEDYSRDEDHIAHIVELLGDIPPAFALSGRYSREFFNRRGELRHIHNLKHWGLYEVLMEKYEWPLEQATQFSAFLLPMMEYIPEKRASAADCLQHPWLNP
Chain of SGK2 (human) (Q9HBY8 whole entry, looked up): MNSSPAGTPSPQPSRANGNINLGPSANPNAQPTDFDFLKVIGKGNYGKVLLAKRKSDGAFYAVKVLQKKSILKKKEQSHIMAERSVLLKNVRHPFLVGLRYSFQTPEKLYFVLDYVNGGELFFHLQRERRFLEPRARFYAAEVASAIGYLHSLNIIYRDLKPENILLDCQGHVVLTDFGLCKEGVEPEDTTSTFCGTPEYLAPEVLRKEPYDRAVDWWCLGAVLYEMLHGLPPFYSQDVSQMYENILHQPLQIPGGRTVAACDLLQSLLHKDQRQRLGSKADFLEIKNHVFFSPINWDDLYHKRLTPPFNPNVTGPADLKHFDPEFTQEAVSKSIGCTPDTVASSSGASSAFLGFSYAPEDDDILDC

Question: How did the residual activity (WEE1 (human)) turn out when `Nc1ncnc2c1cnn2-c1ccccc1` was run?
Answer: 90%

Question: And the residual activity (TTK (human))?
Answer: 90.6%

Question: And the residual activity (CAMKK2 (human))?
Answer: 86.8%

Question: And the residual activity (FLT1 (human))?
Answer: 88.5%

Question: And the residual activity (EPHB1 (human))?
Answer: 97.5%

Question: What about the residual activity (PHKG2 (human)) of the same molecule?
Answer: 94.1%

Question: And the residual activity (AKT1 (human))?
Answer: 103%

Question: And the residual activity (WNK2 (human))?
Answer: 114%

Question: What about the residual activity (ABL1 (human)) of the same molecule?
Answer: 99.4%

Question: What about the residual activity (FGFR2 (human)) of the same molecule?
Answer: 100%

Question: What about the residual activity (STK16 (human)) of the same molecule?
Answer: 94.3%

Question: What about the residual activity (CDC42BPA (human)) of the same molecule?
Answer: 90.2%

Question: What about the residual activity [1] of the same molecule?
Answer: 98.1%

Question: And the residual activity (DMPK (human))?
Answer: 106%

Question: And the residual activity (CAMK1G (human))?
Answer: 102%

Question: What about the residual activity (PRKG1 (human)) of the same molecule?
Answer: 107% and 91.3%

Question: What about the residual activity (BRSK2 (human)) of the same molecule?
Answer: 95.3%

Question: What about the residual activity (GRK6 (human)) of the same molecule?
Answer: 92.3%

Question: And the residual activity (MAPK12 (human))?
Answer: 90.6%

Question: What about the residual activity (ALK (human)) of the same molecule?
Answer: 90.9%

Question: What about the residual activity (MAPK14 (human)) of the same molecule?
Answer: 89.2%

Question: What about the residual activity (HCK (human)) of the same molecule?
Answer: 92.4%

Question: What about the residual activity (MARK2 (human)) of the same molecule?
Answer: 95.3%

Question: What about the residual activity (RAF1 (human)) of the same molecule?
Answer: 95.4%

Question: What about the residual activity (AURKA (human)) of the same molecule?
Answer: 91.9%

Question: What about the residual activity (CDK3 CCNE1 (human)) of the same molecule?
Answer: 96.2%

Question: What about the residual activity (SGK2 (human)) of the same molecule?
Answer: 98.4%

Question: What about the residual activity (FGFR3 (human)) of the same molecule?
Answer: 97.9%

Question: And the residual activity (PRKCE (human))?
Answer: 98.3%

Question: And the residual activity (EPHB3 (human))?
Answer: 93.5%

Question: And the residual activity (KDR (human))?
Answer: 98.8%

Question: What about the residual activity (NEK7 (human)) of the same molecule?
Answer: 106%

Question: And the residual activity (SLK (human))?
Answer: 98%

Question: What about the residual activity (MAP3K11 (human)) of the same molecule?
Answer: 96%

Question: And the residual activity (PAK2 (human))?
Answer: 98.1%

Question: And the residual activity (NUAK1 (human))?
Answer: 93.2%

Question: And the residual activity (SRPK3 (human))?
Answer: 96.4%

Question: And the residual activity (NTRK1 (human))?
Answer: 96.1%

Question: And the residual activity (CDK5 CDK5R1 p25 (human))?
Answer: 102%

Question: And the residual activity (PASK (human))?
Answer: 96.8%

Question: What about the residual activity (DYRK1A (human)) of the same molecule?
Answer: 96.8%

Question: What about the residual activity (STK39 (human)) of the same molecule?
Answer: 107%

Question: With `COc1cc2c(N3CCN(C(=O)Nc4ccc(OC(C)C)cc4)CC3)ncnc2cc1OCCCN1CCCCC1` as the molecule, how does the residual activity (WEE1 (human)) read?
Answer: 97.5%

Question: And the residual activity (TTK (human))?
Answer: 100%

Question: What about the residual activity (CAMKK2 (human)) of the same molecule?
Answer: 101%

Question: And the residual activity (FLT1 (human))?
Answer: 99.4%

Question: And the residual activity (EPHB1 (human))?
Answer: 96.6%

Question: And the residual activity (PHKG2 (human))?
Answer: 98.9%

Question: And the residual activity (AKT1 (human))?
Answer: 102%

Question: And the residual activity (WNK2 (human))?
Answer: 97.4%

Question: And the residual activity (ABL1 (human))?
Answer: 104%

Question: What about the residual activity (FGFR2 (human)) of the same molecule?
Answer: 99.8%

Question: What about the residual activity (STK16 (human)) of the same molecule?
Answer: 103%

Question: And the residual activity (CDC42BPA (human))?
Answer: 106%

Question: And the residual activity [1]?
Answer: 102%

Question: And the residual activity (DMPK (human))?
Answer: 101%

Question: And the residual activity (CAMK1G (human))?
Answer: 94.6%

Question: And the residual activity (PRKG1 (human))?
Answer: 102% and 82.5%

Question: What about the residual activity (BRSK2 (human)) of the same molecule?
Answer: 98.6%

Question: What about the residual activity (GRK6 (human)) of the same molecule?
Answer: 105%

Question: And the residual activity (MAPK12 (human))?
Answer: 96.4%

Question: And the residual activity (ALK (human))?
Answer: 103%

Question: And the residual activity (MAPK14 (human))?
Answer: 94.1%

Question: And the residual activity (HCK (human))?
Answer: 93.2%

Question: And the residual activity (MARK2 (human))?
Answer: 109%

Question: What about the residual activity (RAF1 (human)) of the same molecule?
Answer: 96.7%

Question: And the residual activity (AURKA (human))?
Answer: 108%

Question: What about the residual activity (CDK3 CCNE1 (human)) of the same molecule?
Answer: 90.6%

Question: What about the residual activity (SGK2 (human)) of the same molecule?
Answer: 105%

Question: What about the residual activity (FGFR3 (human)) of the same molecule?
Answer: 93.2%

Question: And the residual activity (PRKCE (human))?
Answer: 104%

Question: What about the residual activity (EPHB3 (human)) of the same molecule?
Answer: 84.2%

Question: And the residual activity (KDR (human))?
Answer: 106%

Question: What about the residual activity (NEK7 (human)) of the same molecule?
Answer: 93.4%

Question: And the residual activity (SLK (human))?
Answer: 94.6%

Question: What about the residual activity (MAP3K11 (human)) of the same molecule?
Answer: 100%

Question: What about the residual activity (PAK2 (human)) of the same molecule?
Answer: 112%

Question: And the residual activity (NUAK1 (human))?
Answer: 104%

Question: What about the residual activity (SRPK3 (human)) of the same molecule?
Answer: 102%

Question: What about the residual activity (NTRK1 (human)) of the same molecule?
Answer: 48.1%

Question: And the residual activity (CDK5 CDK5R1 p25 (human))?
Answer: 104%

Question: What about the residual activity (PASK (human)) of the same molecule?
Answer: 105%

Question: What about the residual activity (DYRK1A (human)) of the same molecule?
Answer: 104%

Question: And the residual activity (STK39 (human))?
Answer: 93.2%

From the kinase profiling compilation of Christmann-Franck et al. (2016)
